Results on one compound are retold here after patent US10774080B2, “Pyrimidine compound as JAK kinase inhibitor” (THERAVANCE BIOPHARMA R&D IP, LLC, priority 2017, dated 2020).

The nature of this data set: Assay 9: skin tissue concentration in mice. Format: in vivo. The note with it: Balb/c, mouse, topical ointment 25 μl/cm^2, biopsy one hour after IL-31. The text has this: The JAK/STAT (janus kinase/signal transducer and activator of transcription) signaling pathway is a key element in the communication between immune cells and is mainly activated through cytokine receptors. Binding of cytokine IL-31 leads to the activation and phosphorylation of JAK1/JAK2 tyrosine kinases which in turn leads to the phosphorylation of STAT3 (pSTAT3). The activated STAT then translocates into the nucleus and directly regulates the transcription of cytokine-sensitive genes. In these studies, Balb/c mice were dosed with an ointment formulation of compound (I). Ointment vehicle (Table 9) or compound (I) formulated in the ointment vehicle was applied topically to shaved skin (25 μl/cm^2) 30 minutes before the intradermal injection (50 μl/1×1 cm2 site) of IL-31 (1 μg/ml) at a 1×1 cm^2 shaved area of skin on the back between the ears. One hour after IL-31, skin biopsies were collected. The tissue samples were flash frozen and analyzed for pSTAT3 by ELISA and compound concentration. Compound (I) inhibited pSTAT3 production by 80% and the skin tissue concentration of compound (I) was 62 μM.

As to `CCS(=O)(=O)N1[C@@H]2CCC[C@H]1C[C@H](N(C)c1nc(CO)c(F)c(Nc3cc(C)[nH]n3)n1)C2` [Compound (I), (2-(((1R,3s,5S)-9-(ethylsulfonyl)-9-azabicyclo[3.3.1]nonan-3-yl)(methyl)amino)-5-fluoro-6-((5-methyl-1H-pyrazol-3-yl)amino)pyrimidin-4-yl)methanol], the concentration at 1.5 h is 62 µM.
